US20180228871A1, “METHODS FOR THE MOBILIZATION AND USE OF T-CELLS WITH ENHANCED RECONSTITUTION POTENTIAL AND LIFE-SPAN” (GlycoMimetics, Inc., priority 2015, published 2018)

B1: G-CSF: granulocyte-colony stimulating factor, a glycoprotein; Example I used Filgastim (Amgen) (protein, UniProt P09919 31-207, looked up)
Granulocyte …: TPLGPASSLPQSFLLKCLEQVRKIQGDGAALQEKLVSECATYKLCHPEELVLLGHSLGIPWAPLSSCPSQALQLAGCLSQLHSGLFLYQGLLQALEGISPELGPTLDTLQLDVADFATTIWQQMEELGMAPALQPTQGAMPAFASAFQRRAGGVLVASHLQSFLEVSYRVLRHLAQP
modifications: filgrastim
B2: Filgrastim: recombinant G-CSF expressed by E. coli, 175 amino acids, 19 kD, amino terminus methionine (protein, UniProt P09919 31-207, looked up)
Granulocyte …: TPLGPASSLPQSFLLKCLEQVRKIQGDGAALQEKLVSECATYKLCHPEELVLLGHSLGIPWAPLSSCPSQALQLAGCLSQLHSGLFLYQGLLQALEGISPELGPTLDTLQLDVADFATTIWQQMEELGMAPALQPTQGAMPAFASAFQRRAGGVLVASHLQSFLEVSYRVLRHLAQP
modifications: filgrastim, N-terminal Met
B3: Pegfilgrastim: Filgrastim with pegylation (20 kD-PEG) modification on the N terminal (protein, UniProt P09919 31-207, looked up)
Granulocyte …: TPLGPASSLPQSFLLKCLEQVRKIQGDGAALQEKLVSECATYKLCHPEELVLLGHSLGIPWAPLSSCPSQALQLAGCLSQLHSGLFLYQGLLQALEGISPELGPTLDTLQLDVADFATTIWQQMEELGMAPALQPTQGAMPAFASAFQRRAGGVLVASHLQSFLEVSYRVLRHLAQP
modifications: N-terminal 20 kDa PEG; pegfilgrastim

How the values were obtained:
HSC = details: transient administration; cited from earlier work
CCR7+ cells = experiment: Mobilization of CCR7 cells by G-CSF and GMI-1271: PBMC counts and marker-positive cells by flow cytometry; assay type: in vivo, Mouse; details: for CCR7 Cells/mL(10^5): IP qdX3, blood PBMC
Procedure: (§1) 1) Test Animals: • 1. Species: Mouse • 2. Strain: Balb/C and C57BV6 • 3. Age and gender 7-9 weeks, Female • 4. Source: Harlan Laboratories • 5. Total number: 25
(§2) G-CSF and GM-1271 in powder form. The test agents were reconstituted with saline 600 μg of G-CSF was dissolved in 6.5 mL of sterile saline giving a concentration of 92.307 μg/mL. Animals were administered with 0.1 mL of dose solution per time point giving the dose concentration for G-CSF was 9.23 μg per mouse per time point.
(§3) 70 mg of GM-1271 was reconstituted with 7 mL of sterile saline giving a concentration of 10 mg/mL. Animals were administered with 0.1 mL of dose solution per time point giving the dose concentration for GM-1271 was 1 mg per mouse per time point.
(§4) • To purify PBMCs, red blood cells (RBCs) in the whole blood were lysed using ACK Lysing Buffer (Life Technologies, A1049201). Whole blood was mixed with ACK Lysing Buffer at a 1: 25 ratio and incubated at room temperature on shaker for 5 min. The cells were centrifuged at 350 g for 7 min and the supernatant was discarded. The purified PBMCs were suspended in PBS containing 2% FBS. Cell counts were performed, pelleted at 250×g for 10 minutes and suspended in 5 ml HBSS containing containing Ca2+ and Mg2+(Life Technologies catalog #14025-092) plus 0.05% bovine serum albumin (BSA) to […] for antibody staining.
(§5) • Add 100 ul cells (2-3×10^5 cells) per tube (5 mL polypropylene round-bottom tubes (BD Falcon tubes #352063, VWR catalog #60819-728). Add indicated amounts of Alexa Fluor 488® labeled antibodies as indicated in Table 3 and immediately place on ice. • Place tubes at 4° C. for 1 hour then add 2 mL cold HBSS/BSA to each tube and pellet cells 250×g for 10 minutes. Pour off supernatant and suspend the cell pellet in 1 mL cold HBSS/BSA. Pellet cells 250×g for 10 minutes, pour off supernatant, and suspend cell pellet in 250 microliters HBSS/BSA. Add 250 microliters 2% formaldehyde (Polysciences, Inc. catalog #04018, 10% ultrapure, EM grade, methanol-free). Proceed to flow cytometry.
(§6) • Fluorescence was acquired via blue laser excitation at 488 nm with emission at 530 nm using preset lasers equipped on the Attune@ NxT Accoustic Focusing Cytometer (Life Technologies). 2×104 events were collected for each sample and analyzed with the use of the Attune® NxT Cytometric Software v2.1. Results were recorded as median fluorescent intensity, % cells positive for a given marker, and as cell concentration of expressing the specific marker per mL.
(§7) These experiments were done in both Balb/c (top table) and BL6 (bottom table) mouse strains.

[1] = as above; assay type: in vivo, Mouse; details: IP qdX3, blood PBMC
Procedure: as §1, §2, §3, §4, §5, §6, §7

CD8+CD62Lhi CD44+ cells = experiment: G-CSF mobilization of blood leukocytes and T-cell subsets with GMI-1271 co-administration (flow cytometry of blood); assay type: in vivo, mice (C57bl/6); details: C57bl/6 mice; for CD44+CD62hi CD4+ T-cells per uL blood: G-CSF administration, with or without GMI-1271 co-administration, FIG. 4B
Procedure: The following classification was used in the following experiments. Of all the CD8+ cells the Tnaive, population is CD62hi […]; the TCM/SCM population is CD62hi CD44+; and the TEM population is CD44+CD62^− population. An increase in the TCM/SCM mouse cell population is observed below (see FIGS. 1 through 6).
Cohorts of mice (C57bl/6 adult 10 week old males) were administered G-CSF (Filgastim, Amgen) at 125ug/kg/injection bidaily subcutaneous injections for a total of 72 hours before sacrifice (with non-mobilised control group #1 receiving saline injection instead).
The E-selectin mimetic antagonist GMI-1271 (bidaily intraperitoneal injections at 40 mg/kg/injection), was co-administered to these mice at specified timepoints prior to sacrifice with a final GMI-1271 injection always occurring exactly 1 hour prior to sacrifice. Generally all mice received injections at 9 am and 6 pm every day with n=4 per group. The injection groups are outlined in FIG. 1 and are detailed below.
The mouse groups were: Group 1. non-mobilised control, Group 2. G-CSF alone control, Group 3. 14 hours GMI-1271, Group 4. 24 hours GMI-1271, Group 5. 48 hours GMI-1271, Group 6. 72 hours GMI-1271
After 3 days (72 hours) G-CSF administration mice were euthanised administration and heparinised blood collected by cardiac puncture. Total blood leukocytes counts were enumerated using an automated haematological cell counter (Beckman-Coulter KX-21), For flow cytometry, red cells were first lysed using ammonium lysis then blood leukocytes washed in phosphate buffered saline (PBS) containing 2% fetal calf serum and incubated on ice in the presence of excess FcBlock (CD16/CD32 hybridoma 2.4G2 supernatant to block endogenous Fc receptors) following the methodology in Winkler et al., Nature Medicine 2012. Cells were stained using the antibodies CD4-pacific blue, CD8-peCY7, CD62L-BV605, CD44-AF700 at a final concentration of approx 5 million leukocytes per 100 uL volume containing 0.5 ug of each of the above conjugated monoclonal antibodies. All conjugated antibodies were purchased from Biolegend, CA. After 40 minutes incubation on ice, cells were washed to remove excess antibody (by addition of 1 mL PBS, centrifugation at 370×g for 5 minutes at 4 C, removal of supernatant and resuspension of pellet in 100 uL PBS with 2% fetal calf serum). Flow cytometry of cells was performed on the 8 colour CYAN (Beckman Coulter) using unstained blood and single colour controls to set voltages and gating strategy.
CD8+ Tcell subsets were divided based on CD62 and CD44 staining. With CD8+ naive T cells being CD62hi CD44−, CD8+T CM/SCM cells being CD62hi CD44+ double positive and TEM being CD44+ and CD62 negative following routine methodology.
Data was later analysed using the Flow Jo software and collated in excel software. Figures and statistics were by ANOVA using prism software.

HSCs = details: E-selectin inhibition during HSC mobilization with G-CSF; cited from earlier work
[2] = in vivo; cited from earlier work

| Molecule | CCR7 Cells/mL(10^5) (CCR7+ cells; BL6 mice (bottom table)) | CCR7 Cells/mL(10^5) (CCR7+ cells; Balb/c mice (top table)) | CD4 Cells/mL(10^5) ([1]; BL6 mice (bottom table)) | CD8 Cells/mL(10^5) ([1]; BL6 mice (bottom table)) | CD44 Cells/mL(10^5) ([1]; BL6 mice (bottom table)) | CD62L Cells/mL(10^5) ([1]; BL6 mice (bottom table)) | Total cells/mL (10^6 + SD) ([1]; BL6 mice (bottom table)) | CD4 Cells/mL(10^5) ([1]; Balb/c mice (top table)) | CD8 Cells/mL(10^5) ([1]; Balb/c mice (top table)) | CD44 Cells/mL(10^5) ([1]; Balb/c mice (top table)) | CD62L Cells/mL(10^5) ([1]; Balb/c mice (top table)) | Total cells/mL (10^6 + SD) ([1]; Balb/c mice (top table)) | CD44+CD62hi CD4+ T-cells per uL blood (CD8+CD62Lhi CD44+ cells) | half-life [2] | further results |
| --- | --- | --- | --- | --- | --- | --- | --- | --- | --- | --- | --- | --- | --- | --- | --- |
| C[C@@H]1O[C@@H](O[C@@H]2[C@@H](NC(=O)c3cc(=O)[nH]c(=O)[nH]3)C[C@@H](C(=O)NCCNC(=O)COCCOCC(=O)Nc3cc(S(=O)(=O)O)cc4cc(S(=O)(=O)O)cc(S(=O)(=O)O)c34)C[C@H]2O[C@@H]2O[C@H](CO)[C@H](O)[C@H](O[C@@H](CC3CCCCC3)C(=O)O)[C@H]2OC(=O)c2ccccc2)[C@@H](O)[C@H](O)[C@@H]1O [GMI-1070] | – | – | – | – | – | – | – | – | – | – | – | – | – | – | HSC self-renewal (HSC): promotes HSC self-renewal |
| CC[C@H]1C[C@@H](C(=O)NCCNC(=O)CCOCCOCCOCCOCCOCCOCCOCCOCCOCCOCCOCCOC)C[C@@H](O[C@@H]2O[C@H](CO)[C@H](O)[C@H](O[C@@H](CC3CCCCC3)C(=O)[O-])[C@H]2NC(C)=O)[C@@H]1O[C@@H]1O[C@@H](C)[C@@H](O)[C@@H](O)[C@@H]1O.[Na+] [GMI-1271] | 0.23 10^5 cells/mL | 1.68 10^5 cells/mL | 0.43 10^5 cells/mL | 1.74 10^5 cells/mL | 3.56 10^5 cells/mL | 0.19 10^5 cells/mL | 1.89 ± 0.40 10^6 cells/mL | 1.56 10^5 cells/mL | 0.49 10^5 cells/mL | 4.76 10^5 cells/mL | 0.74 10^5 cells/mL | 1.01 ± 0.46 10^6 cells/mL | does not appear to boost their numbers in blood | – | mobilization of CCR7+ cells (CCR7+ cells; addition of GMI-1271 to G-CSF, both Balb/c and BL6 strains): increases the mobilization of CCR7+ cells; Total leukocytes per uL blood, increase over G-CSF 3 days alone (CD8+CD62Lhi CD44+ cells; 24 hr administration of GMI-1271 with 72 h G-CSF, FIG. 2): ~1.5 fold; CD44+CD62hi CD8+ Tcells per uL blood (CD8+CD62Lhi CD44+ cells; 24 hrs GMI-1271 co-administration with G-CSF, FIG. 5B): significantly increased; CD4+ Tcells per uL blood (CD8+CD62Lhi CD44+ cells; G-CSF with GMI-1271 co-administration, FIG. 4A): no change; CD8+ Tcells per uL blood (CD8+CD62Lhi CD44+ cells; G-CSF with GMI-1271 co-administration, FIG. 5A): no changes; Total T-cells per uL blood (CD4+ and CD8+ combined) (CD8+CD62Lhi CD44+ cells; GMI-1271 co-administration with G-CSF, FIG. 3): No change; reconstitution potential of mobilized HSCs (HSCs): ~25 fold |
| B1 | 0.60 10^5 cells/mL | 4.00 10^5 cells/mL | 1.10 10^5 cells/mL | 10.00 10^5 cells/mL | 12.65 10^5 cells/mL | 0.09 10^5 cells/mL | 5.98 ± 2.25 10^6 cells/mL | 3.43 10^5 cells/mL | 1.32 10^5 cells/mL | 14.88 10^5 cells/mL | 1.59 10^5 cells/mL | 2.67 ± 0.64 10^6 cells/mL | appear to be decreased | – | – |
| B2 | – | – | – | – | – | – | – | – | – | – | – | – | – | 3.5 h | – |
| B3 | – | – | – | – | – | – | – | – | – | – | – | – | – | 15 to 80 h | – |
